Values belong to the molecule of their own block, whether it stands above or below them.
What was measured:
[1] = system: TopoII-supercoiled DNA complexes; assay: TopoII-supercoiled DNA complexes on AFM cantilever, fluctuation recording; format: biochemical, human; conditions: 0.02 mM ATP, compared to ATP free buffer or AMPPMP solution
Protocol: As mentioned previously, TopoII interacts with DNA to simplify its topology. To record this reaction with our method we deposited TopoII-supercoiled DNA complexes on both sides of an AFM cantilever, as depicted in FIG. 6.
The experiment was performed using an APTES-coated AFM cantilever. The different media injected during experiment are: buffer (50 mM Tris-HCl (pH 8.0), 150 mM NaCl, 10 mM MgCl2 and 0.5 mM dithiothreitol), 0.02 mM. AMPPNP (an ATP analogue) and 0.02 mM ATP. […] Panel B depicts the experimental set-up to follow TopoII-DNA interactions. a) DNA molecule, b) TopoII, c) AFM cantilever, d) laser beam. Panel C evidences the differences in terms of the variance.
Here again the cantilever covered with TopoII-supercoiled DNA complexes was inserted in the analysis chamber and exposed to several consecutive liquid environments: 1) ATP free solution, 2) buffer containing a non functional ATP substitute, referred to as AMPPMP 3) ATP enriched medium. AMPPMP is a non-hydrolysable ATP analogue which inhibits TopoII activity.

[2] = system: human Topoisomerase II; assay: TopoII adsorbed on AFM cantilever, fluctuation recording (drug affinity detection); format: biochemical
Excerpt: This enzyme requires ATP to modify its 3D conformation and to act on DNA. TopoII is also the preferred target of numerous anticancerous drugs such as aclarubicin. This drug binds to TopoII, freezes its conformation and inhibits its action (15). In the first experiment, TopoII was adsorbed onto both sides of a cantilever. It was than introduced in the analysis chamber of an AFM and its laser beam was collimated on the apex of the cantilever. The reflection of the laser beam, sent to a split photo-detector, allowed detecting the fluctuations of the cantilever as depicted in FIG. 1 and, more in detail, FIG. 3,
The experiment consisted in injecting successively an ATP depleted buffer, an ATP enriched solution and an aclarubicin+ATP rich media in the analysis chamber and by recording the resulting fluctuations of the cantilever.
This experiment was performed using an APTES-coated AFM cantilever. The different buffers injected during experiment are: buffer (50 mM Tris-HCl (pH 8.0), 150 mM NaCl, 10 mM MgCl2, and 0.5 mM dithiothreitol), 0.02 mM ATP and 0.02 mM ATP plus 100 μM aclarubicin.
The media used in this experiment are: buffer (50 mM Tris-HCl (pH 8.0), 150 mM NaCl, 10 mM MgCl2 and 0.5 mM dithiothreitol.), 0.02 mM ATP, 0.2 mM ATP, 2 mM ATP and again buffer.

[3] = system: Staphylococcus aureus; assay: Antibiotic sensitivity detection, non-motile bacteria on cantilever; format: cell-based; conditions: exposure to ampicillin in LB; FIG. 10
Excerpt: Later on, similar experiments were repeated using non-motile bacteria (Staphylococcus aureus) susceptible to ampicillin. […] The results of the cantilever motion RMS are depicted in FIG. 10. In this experiment an APTES-coated AFM cantilever was used. The different phases of the experiment are depicted: PBS, bacteria in PBS, bacteria in LB and exposure to ampicillin.

[4] = system: Escherichia coli; assay: Antibiotic sensitivity detection, bacteria adsorbed on cantilever; format: cell-based; conditions: FIG. 8
Excerpt: Motile bacteria (Escherichia coli), resistant to kanamycin but sensitive to ampicillin, were adsorbed to both sides of a cantilever. The bacteria were successively exposed to both antibiotics to determine the impact on the bacterial motion/viability (see FIG. 7).
In these experiments the cantilever was introduced in the analysis chamber and exposed to a solution containing bacteria that eventually attached to its surface. The system was then exposed to: 1) nutriment depleted buffer, 2) nutriment solution (Lysogeny broth (LB)), 3) kanamycin-enriched LB solution 4) LB solution 5) ampicillins-enriched LB solution and, finally, 6) LB solution.
The experiment was performed using an APTES-coated AFM cantilever. The different phases of the experiment are depicted: PBS, bacteria in PBS, bacteria in LB, exposure to kanamycin, washing with LB, exposure to ampicillin, washing with LB.

variance of the cantilever fluctuations ([2]; 0.02 mM ATP, compared to ATP depleted buffer or aclarubicin, FIG. 4): significantly higher
conformational changes induced on TopoII (cantilever fluctuation variance) ([2]; 0.02 mM, 0.2 mM, 2 mM ATP, FIG. 5): dependent on its concentration
Compound: Nc1ncnc2c1ncn2[C@@H]1O[C@H](COP(=O)(O)OP(=O)(O)OP(=O)(O)O)[C@@H](O)[C@H]1O [ATP]
cantilever fluctuation variance [1]: significant increase

Compound: CC[C@@]1(O)C[C@H](O[C@H]2C[C@H](N(C)C)[C@H](O[C@H]3C[C@H](O)[C@H](O[C@H]4CCC(=O)[C@H](C)O4)[C@H](C)O3)[C@H](C)O2)c2c(cc3c(c2O)C(=O)c2c(O)cccc2C3=O)[C@H]1C(=O)OC [aclarubicin]
TopoII conformational state (cantilever fluctuation) ([2]; 0.02 mM ATP plus 100 μM aclarubicin, FIG. 4): again in equilibrium

Compound: CC1(C)S[C@@H]2[C@H](NC(=O)[C@H](N)c3ccccc3)C(=O)N2[C@H]1C(=O)O [ampicillin]
internal movements of bacteria (cantilever motion) [3]: decreased dramatically
bacterial motion (cantilever fluctuations) ([4]; antibiotic-enriched LB solution, E. coli resistant to kanamycin, sensitive to ampicillin): dramatically decreased
bacterial motion after washing with LB solution ([4]; step 6, LB solution after ampicillin exposure): remained at the same value

— patent publication US11299762B2, “Nanoscale motion detector” (Ecole Polytechnique Fédérale de Lausanne (EPFL), priority 2011, dated 2022)
